Where “and” joins values, the source holds several entries; their conditions need not be identical. Identical values can stand only once.

The text below walks through data of patent publication US8986961B2, “Fermentative production of acetone from renewable resources by means of novel metabolic pathway” (Evonik Degussa GmbH, priority 2007, dated 2015).

One series has as its system E. coli HB101. The series can be described thus: Acetone formation in E. coli HB101, 5 ml cultures. The format is cell-based, Escherichia coli. The following applies: HB101, LBAmp, 5 ml culture, 37° C., glucose 20 g/l, cell-free supernatant, gas chromatography. The procedure:
All the resulting plasmid variants (see Table 1) were investigated for acetone formation in the E. coli cloning strain HB101. The analyses took place on the 5 ml scale in LB medium with ampicillin (100 μg/ml) after inoculation from appropriate precultures and after incubation at 37° C. and 200 rpm. The optical density (600 nm) was followed by photometry and, at a value of about 0.5-0.6, expression of the cloned genes was induced by adding 1 mM IPTG (isopropyl β-D-thiogalactopyrano-side) and, after 3-4 h, glucose (20 g/l) was added. No induction took place with the variants under the control of the thiolase promoter because it was assumed that constitutive expression takes place. Samples were taken at particular times over a period of about 48 h, and the concentration of acetone and acetate in the cell-free medium supernatant was determined by gas chromatography. Additional glucose doses optionally took place in varying amounts (in the range 10-40 g/l) either 4 h after induction or else simultaneously with the induction.

In series [1] the test system is CC(=O)SCCNC(=O)CCNC(=O)[C@H](O)C(C)(C)COP(=O)(O)OP(=O)(O)OC[C@H]1O[C@@H](n2cnc3c(N)ncnc32)[C@H](O)[C@@H]1OP(=O)(O)O. The series is described as follows: purified protein, by the assay type. As to conditions: other: YbgC elution fractions (IMPACT system), DTNB assay; measurements varied.
Series [2] deals with CC(=O)CC(=O)SCCNC(=O)CCNC(=O)[C@H](O)C(C)(C)COP(=O)(O)OP(=O)(O)OC[C@H]1O[C@@H](n2cnc3c(N)ncnc32)[C@H](O)[C@@H]1OP(=O)(O)O. The series is described as follows: purified protein, by the assay type. The following applies: other: YbgC elution fractions (IMPACT system), DTNB assay; measurements varied.
The test system of series [3] is acyl-CoA synthetase/acyl-CoA thiokinase (with AMP formation; EC 6.2.1.2). As to conditions: purified enzyme, Shimizu et al. 1981; read-out: Km for substrate; cited from earlier work.
Series [4] has as its target YbgC acyl-CoA thioesterase (EC 3.1.2.18) (Haemophilus influenzae, UniProt P44679). As to conditions: Zhuang et al. 2002; read-out: Km of YbgC for substrate; cited from earlier work.
Series [5] addresses T1, Thioesterase II (TEIIsrf) (Bacillus subtilis, UniProt Q08788).
T1 sequence (Q08788 with tags, fused parts or gaps): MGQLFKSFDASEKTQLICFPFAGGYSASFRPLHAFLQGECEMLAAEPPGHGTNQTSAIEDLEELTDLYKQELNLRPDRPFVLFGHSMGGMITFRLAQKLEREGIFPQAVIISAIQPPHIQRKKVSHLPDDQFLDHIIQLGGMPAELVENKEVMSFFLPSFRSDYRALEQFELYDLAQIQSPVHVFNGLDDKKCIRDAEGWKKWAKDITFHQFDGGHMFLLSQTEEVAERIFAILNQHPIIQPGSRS
The following applies: read-out: Km of TEIIsrf for substrate; purified His-tagged TEIIsrf, DTNB assay 412 nm, Lineweaver-Burk.

Series [6] has as its target T2, Acetoacetyl-CoA synthetase (AACS) (Rhizobium meliloti, UniProt Q9Z3R3).
T2 sequence (Q9Z3R3 1-650): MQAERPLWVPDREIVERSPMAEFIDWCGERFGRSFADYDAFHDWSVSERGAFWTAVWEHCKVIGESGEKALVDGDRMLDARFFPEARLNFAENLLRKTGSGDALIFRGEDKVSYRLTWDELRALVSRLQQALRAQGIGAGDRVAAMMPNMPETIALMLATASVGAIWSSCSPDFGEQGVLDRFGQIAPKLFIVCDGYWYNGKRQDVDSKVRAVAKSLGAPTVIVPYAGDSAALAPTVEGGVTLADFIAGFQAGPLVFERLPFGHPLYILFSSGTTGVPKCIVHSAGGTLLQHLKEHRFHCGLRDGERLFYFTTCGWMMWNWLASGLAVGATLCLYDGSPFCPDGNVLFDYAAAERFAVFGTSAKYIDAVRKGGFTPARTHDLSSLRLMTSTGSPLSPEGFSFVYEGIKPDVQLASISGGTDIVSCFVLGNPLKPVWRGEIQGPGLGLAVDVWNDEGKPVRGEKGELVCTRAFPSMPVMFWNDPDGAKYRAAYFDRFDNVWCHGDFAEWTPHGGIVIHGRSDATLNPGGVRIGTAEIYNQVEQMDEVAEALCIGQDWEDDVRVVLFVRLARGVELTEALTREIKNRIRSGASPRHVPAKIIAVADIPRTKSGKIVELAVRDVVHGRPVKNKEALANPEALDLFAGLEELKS
The following applies: purified AACS, DTNB assay.

Substrate in series [7]: CC(=O)CC(=O)SCCNC(=O)CCNC(=O)[C@H](O)C(C)(C)COP(=O)(O)OP(=O)(O)OC[C@H]1O[C@@H](n2cnc3c(N)ncnc32)[C@H](O)[C@@H]1OP(=O)(O)O
The series is described as follows: purified protein, by the assay type. As to conditions: other: purified His-tagged TEIIsrf, DTNB assay 412 nm, Lineweaver-Burk.

Substrate in series [8]: CC(=O)SCCNC(=O)CCNC(=O)[C@H](O)C(C)(C)COP(=O)(O)OP(=O)(O)OC[C@H]1O[C@@H](n2cnc3c(N)ncnc32)[C@H](O)[C@@H]1OP(=O)(O)O
The series can be described thus: purified protein, by the assay type. As to conditions: other: purified His-tagged AACS (peak 2), DTNB assay.

YbgC acyl-CoA thioesterase (EC 3.1.2.18), sequence (P44679 whole entry): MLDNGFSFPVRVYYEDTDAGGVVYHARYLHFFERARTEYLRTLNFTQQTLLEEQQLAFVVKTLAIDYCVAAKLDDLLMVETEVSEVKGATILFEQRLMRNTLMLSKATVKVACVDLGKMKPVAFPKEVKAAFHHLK

On to “pUC18att: plasmid SEQ ID No. 10; teIIsrf, adc, thlA in pUC18 under thl promoter”, for which, in the series on E. coli HB101, the Max. acetone concentration is 35 mM and 2.0 g/l. By Km is commonly meant the concentration of substrate that gives half-maximal velocity. As for “Acyl-CoA thioesterase YbgC (Haemophilus influenzae Rd KW20)”, the values for the Michaelis constant (Km) in series [1] and in series [2] were 530 µM and 140 µM, respectively. On to `CCCC(=O)SCCNC(=O)CCNC(=O)[C@H](O)C(C)(C)COP(=O)(O)OP(=O)(O)OC[C@H]1O[C@@H](n2cnc3c(N)ncnc32)[C@H](O)[C@@H]1OP(=O)(O)O` [butyryl-CoA], for which the values for the Km in series [3] and in series [4] were 10 µM and 24 mM, respectively. For β-hydroxybutyrate-CoA, the Km in [3] was 25 µM; in [4], 20 mM. With `CCC(=O)C(=O)O` [2-ketobutyrate], the Michaelis constant (Km) in series [3] is 25 µM. On to `CC(=O)SCCNC(=O)CCNC(=O)[C@H](O)C(C)(C)COP(=O)(O)OP(=O)(O)OC[C@H]1O[C@@H](n2cnc3c(N)ncnc32)[C@H](O)[C@@H]1OP(=O)(O)O` [acetyl-CoA], for which, in series [5], the Km came to 200 µM. Regarding `CC(=O)CC(=O)SCCNC(=O)CCNC(=O)[C@H](O)C(C)(C)COP(=O)(O)OP(=O)(O)OC[C@H]1O[C@@H](n2cnc3c(N)ncnc32)[C@H](O)[C@@H]1OP(=O)(O)O` [acetoacetyl-CoA], the “specific activity of the enzyme with substrate” value in [6] was 0.0038 µmol/min/mg.

B1: Thioesterase II (TEIIsrf) (Bacillus subtilis subsp. subtilis str. 168) (protein)
chain: MGQLFKSFDASEKTQLICFPFAGGYSASFRPLHAFLQGECEMLAAEPPGHGTNQTSAIEDLEELTDLYKQELNLRPDRPFVLFGHSMGGMITFRLAQKLEREGIFPQAVIISAIQPPHIQRKKVSHLPDDQFLDHIIQLGGMPAELVENKEVMSFFLPSFRSDYRALEQFELYDLAQIQSPVHVFNGLDDKKCIRDAEGWKKWAKDITFHQFDGGHMFLLSQTEEVAERIFAILNQHPIIQPGSRS
For the molecule B1, the Km in [7] was 770 µM.

B2: Acetoacetyl-CoA synthetase (AACS) (Sinorhizobium meliloti 1021) (protein)
chain: MQAERPLWVPDREIVERSPMAEFIDWCGERFGRSFADYDAFHDWSVSERGAFWTAVWEHCKVIGESGEKALVDGDRMLDARFFPEARLNFAENLLRKTGSGDALIFRGEDKVSYRLTWDELRALVSRLQQALRAQGIGAGDRVAAMMPNMPETIALMLATASVGAIWSSCSPDFGEQGVLDRFGQIAPKLFIVCDGYWYNGKRQDVDSKVRAVAKSLGAPTVIVPYAGDSAALAPTVEGGVTLADFIAGFQAGPLVFERLPFGHPLYILFSSGTTGVPKCIVHSAGGTLLQHLKEHRFHCGLRDGERLFYFTTCGWMMWNWLASGLAVGATLCLYDGSPFCPDGNVLFDYAAAERFAVFGTSAKYIDAVRKGGFTPARTHDLSSLRLMTSTGSPLSPEGFSFVYEGIKPDVQLASISGGTDIVSCFVLGNPLKPVWRGEIQGPGLGLAVDVWNDEGKPVRGEKGELVCTRAFPSMPVMFWNDPDGAKYRAAYFDRFDNVWCHGDFAEWTPHGGIVIHGRSDATLNPGGVRIGTAEIYNQVEQMDEVAEALCIGQDWEDDVRVVLFVRLARGVELTEALTREIKNRIRSGASPRHVPAKIIAVADIPRTKSGKIVELAVRDVVHGRPVKNKEALANPEALDLFAGLEELKS
As to B2, the Km in [8] came out at 700 µM.
